Source: patent US8614327B2 (Vertex Pharmaceuticals Incorporated, priority 2004, dated 2013)

Biological target: T1, ΔF508-CFTR (Homo sapiens, UniProt P13569, DEL508-508)
T1 construct: expressed in transfected cells
Experiment: Membrane potential optical (FRET/VIPR) assay, identification of potentiator compounds
Format: cell-based
Conditions: Table 3, assay not given; for % Activity: relative efficacy
In short: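 NIH3T3 mouse fibroblasts stably expressing ΔF508-CFTR, temperature-corrected 24 h at 27° C., read on VIPR by FRET between CC2-DMPE and DiSBAC2(3). Potentiators identified in a double-addition format, first adding chloride-free (gluconate) medium with or without compound.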

T1 sequence (P13569 with tags, fused parts or gaps DEL508-508): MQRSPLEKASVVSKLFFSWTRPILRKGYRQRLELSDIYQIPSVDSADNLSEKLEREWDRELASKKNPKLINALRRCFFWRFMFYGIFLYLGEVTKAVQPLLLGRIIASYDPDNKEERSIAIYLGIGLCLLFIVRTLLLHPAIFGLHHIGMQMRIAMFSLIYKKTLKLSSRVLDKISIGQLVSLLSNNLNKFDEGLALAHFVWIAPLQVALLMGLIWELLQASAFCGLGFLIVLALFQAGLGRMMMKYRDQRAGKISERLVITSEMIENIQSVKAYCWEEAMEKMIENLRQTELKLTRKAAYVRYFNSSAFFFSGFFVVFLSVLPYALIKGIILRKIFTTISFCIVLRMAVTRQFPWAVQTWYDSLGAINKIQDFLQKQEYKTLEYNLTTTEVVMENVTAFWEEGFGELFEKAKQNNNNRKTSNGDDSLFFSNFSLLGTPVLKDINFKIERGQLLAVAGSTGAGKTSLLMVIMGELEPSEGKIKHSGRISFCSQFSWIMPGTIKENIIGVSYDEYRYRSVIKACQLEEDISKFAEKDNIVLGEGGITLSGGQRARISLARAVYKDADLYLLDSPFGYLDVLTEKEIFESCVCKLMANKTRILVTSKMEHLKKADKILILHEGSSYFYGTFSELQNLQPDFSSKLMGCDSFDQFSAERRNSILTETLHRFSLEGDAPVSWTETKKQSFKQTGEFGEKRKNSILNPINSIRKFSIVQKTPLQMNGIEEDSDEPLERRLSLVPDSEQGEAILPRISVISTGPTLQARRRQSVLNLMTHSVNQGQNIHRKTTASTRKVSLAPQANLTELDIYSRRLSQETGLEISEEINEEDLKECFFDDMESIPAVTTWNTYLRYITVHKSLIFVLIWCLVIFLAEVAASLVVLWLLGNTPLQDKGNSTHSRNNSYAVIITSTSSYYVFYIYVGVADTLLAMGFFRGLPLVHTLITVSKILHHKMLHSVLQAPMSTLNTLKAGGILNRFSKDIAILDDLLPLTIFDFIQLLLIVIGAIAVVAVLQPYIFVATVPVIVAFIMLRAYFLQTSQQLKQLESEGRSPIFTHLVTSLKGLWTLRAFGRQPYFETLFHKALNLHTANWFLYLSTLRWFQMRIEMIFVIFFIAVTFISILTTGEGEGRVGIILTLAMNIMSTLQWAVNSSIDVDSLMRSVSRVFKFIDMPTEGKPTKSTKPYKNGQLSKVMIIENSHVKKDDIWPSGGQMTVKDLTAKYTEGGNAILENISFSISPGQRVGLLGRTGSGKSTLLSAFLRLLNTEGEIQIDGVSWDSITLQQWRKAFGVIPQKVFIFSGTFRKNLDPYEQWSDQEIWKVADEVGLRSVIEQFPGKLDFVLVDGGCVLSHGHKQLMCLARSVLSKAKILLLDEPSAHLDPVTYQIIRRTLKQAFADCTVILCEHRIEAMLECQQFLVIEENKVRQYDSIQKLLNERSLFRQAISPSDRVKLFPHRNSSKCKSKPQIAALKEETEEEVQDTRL

Structure (SMILES)	EC50 [µM]	% Activity
CC(C)(C)c1cc(C(C)(C)C)c(NC(=O)c2c[nH]c3ccc(Br)cc3c2=O)cc1O [Compound 553, 6-bromo-N-(5-hydroxy-2,4-ditert-butyl-phenyl)-4-oxo-1H-quinoline-3-carboxamide]	< 10	++ (between 25% to 100%)
O=C(Nc1ccccc1Cc1ccccc1)c1c[nH]c2ccccc2c1=O [Compound 265, N-(2-benzylphenyl)-4-oxo-1H-quinoline-3-carboxamide]	< 10	++ (between 25% to 100%)
O=C(Nc1ccc(C(F)(F)F)c(O)c1)c1c[nH]c2cccc(O)c2c1=O [Compound 700, 5-hydroxy-N-[3-hydroxy-4-(trifluoromethyl)phenyl]-4-oxo-1H-quinoline-3-carboxamide]	< 10	++ (between 25% to 100%)
CCOc1ccccc1-c1ccc(NC(=O)OC(C)(C)C)cc1NC(=O)c1c[nH]c2ccccc2c1=O [Compound 114, [4-(2-ethoxyphenyl)-3-[(4-oxo-1H-quinolin-3-yl)carbonylamino]phenyl]aminoformic acid tert-butyl ester]	< 10	++ (between 25% to 100%)
COc1cc(NC(=O)c2c[nH]c3cccc(O)c3c2=O)cc(C(F)(F)F)c1 [Compound 502, 5-hydroxy-N-[3-methoxy-5-(trifluoromethyl)phenyl]-4-oxo-1H-quinoline-3-carboxamide]	< 10	++ (between 25% to 100%)
CC1(c2cc(F)c(NC(=O)c3c[nH]c4ccccc4c3=O)cc2O)CCCCC1 [Compound 92, N-[2-fluoro-5-hydroxy-4-(1-methylcyclohexyl)-phenyl]-4-oxo-1H-quinoline-3-carboxamide]	< 10	++ (between 25% to 100%)
O=C(Nc1ccccc1-c1cc(Cl)ccc1Cl)c1c[nH]c2ccccc2c1=O [Compound 213, N-[2-(2,5-dichlorophenyl)phenyl]-4-oxo-1H-quinoline-3-carboxamide]	< 10	++ (between 25% to 100%)
NC(=O)c1cccc(NC(=O)c2c[nH]c3ccccc3c2=O)c1 [Compound 179, N-(3-carbamoylphenyl)-4-oxo-1H-quinoline-3-carboxamide]	25 to 60	+ (<25%)
Cc1cc(C2C3CC4CC(C3)CC2C4)c(O)cc1NC(=O)c1c[nH]c2ccccc2c1=O (centres unmarked) [Compound 208, N-[4-(2-adamantyl)-5-hydroxy-2-methyl-phenyl]-4-oxo-1H-quinoline-3-carboxamide]	< 10	++ (between 25% to 100%)
CC(C)(C)c1ccc(NC(=O)c2c[nH]c3ccccc3c2=O)cc1CO [Compound 6, N-[3-(hydroxymethyl)-4-tert-butyl-phenyl]-4-oxo-1H-quinoline-3-carboxamide]	< 10	+++ (>100%)
O=C(Nc1ccc2c3c([nH]c2c1)CCCC3)c1c[nH]c2ccccc2c1=O [Compound 244, 4-oxo-N-(6,7,8,9-tetrahydro-5H-carbazol-2-yl)-1H-quinoline-3-carboxamide]	< 10	++ (between 25% to 100%)
CCOc1ccc2[nH]cc(C(=O)Nc3cc4[nH]ccc4cc3C(C)(C)C)c(=O)c2c1 [Compound 681, 6-ethoxy-4-oxo-N-(5-tert-butyl-1H-indol-6-yl)-1H-quinoline-3-carboxamide]	< 10	++ (between 25% to 100%)
CCCc1ccc(NC(=O)c2c[nH]c3ccccc3c2=O)cc1NC(=O)OC [Compound 221, [5-[(4-oxo-1H-quinolin-3-yl)carbonylamino]-2-propyl-phenyl]aminoformic acid methyl ester]	< 10	++ (between 25% to 100%)
CCCc1ccc(NC(=O)c2c[nH]c3ccccc3c2=O)cc1NC(=O)OCC [Compound 382, [5-[(4-oxo-1H-quinolin-3-yl)carbonylamino]-2-propyl-phenyl]aminoformic acid ethyl ester]	< 10	++ (between 25% to 100%)
O=C(Nc1ccc2c(c1)NCC2)c1c[nH]c2ccccc2c1=O [Compound 258, N-Indolin-6-yl-4-oxo-1H-quinoline-3-carboxamide]	< 10	++ (between 25% to 100%)
O=C(Nc1cc2[nH]ccc2cc1Cl)c1c[nH]c2ccccc2c1=O [Compound 32, N-(5-chloro-1H-indol-6-yl)-4-oxo-1H-quinoline-3-carboxamide]	< 10	++ (between 25% to 100%)
CC(C)OC(=O)c1cccc(-c2ccccc2NC(=O)c2c[nH]c3ccccc3c2=O)c1 [Compound 71, 3-[2-[(4-oxo-1H-quinolin-3-yl)carbonylamino]phenyl]benzoic acid isopropyl ester]	< 10	++ (between 25% to 100%)
O=C(Nc1ccc2cc[nH]c2c1)c1c(C(F)(F)F)[nH]c2ccccc2c1=O [Compound 184, N-(1H-indol-6-yl)-4-oxo-2-(trifluoromethyl)-1H-quinoline-3-carboxamide]	25 to 60	+ (<25%)

Structure (SMILES)	EC50 [µM]	% Activity
CCOCCc1c[nH]c2cc(NC(=O)c3c[nH]c4ccccc4c3=O)ccc12 [Compound 423, N-[3-(2-ethoxyethyl)-1H-indol-6-yl]-4-oxo-1H-quinoline-3-carboxamide]	< 10	++ (between 25% to 100%)
O=C(Nc1ccccc1N1CCN(C(=O)c2ccccc2)CC1)c1c[nH]c2ccccc2c1=O [Compound 321, N-[2-(4-benzoylpiperazin-1-yl)phenyl]-4-oxo-1H-quinoline-3-carboxamide]	< 10	++ (between 25% to 100%)
CCc1cccc(NC(=O)c2c[nH]c3ccccc3c2=O)n1 [Compound 125, N-(6-ethyl-2-pyridyl)-4-oxo-1H-quinoline-3-carboxamide]	10 to 25	++ (between 25% to 100%)
CC1(C)CCOc2cc(NC(=O)c3c[nH]c4ccccc4c3=O)ccc21 [Compound 204, N-(4,4-dimethylchroman-7-yl)-4-oxo-1H-quinoline-3-carboxamide]	< 10	++ (between 25% to 100%)
C[C@H]1CCCCN1c1ccc(NC(=O)c2c[nH]c3ccccc3c2=O)c(C(F)(F)F)c1 [Compound 713, (S)-N-(4-(2-methylpiperidin-1-yl)-2-(trifluoromethyl)phenyl)-4-oxo-1,4-dihydroquinoline-3-carboxamide]	< 10	+++ (>100%)
CC1(c2cc(F)c(NC(=O)c3cnc4ccccc4c3O)cc2O)CCCCCC1 [Compound 483, N-[2-fluoro-5-hydroxy-4-(1-methylcycloheptyl)-phenyl]-4-hydroxy-quinoline-3-carboxamide]	< 10	++ (between 25% to 100%)
O=C(Nc1ccccc1-c1ccc(CO)cc1)c1c[nH]c2ccccc2c1=O [Compound 302, N-[2-[4-(hydroxymethyl)phenyl]phenyl]-4-oxo-1H-quinoline-3-carboxamide]	10 to 25	++ (between 25% to 100%)
O=C(Nc1cc(Cl)cc(NS(=O)(=O)CCN2CCOCC2)c1)c1c[nH]c2ccccc2c1=O [Compound 46, N-[3-chloro-5-(2-morpholinoethylsulfonylamino)phenyl]-4-oxo-1H-quinoline-3-carboxamide]	10 to 25	++ (between 25% to 100%)
COC(=O)Nc1cc(NC(=O)c2c[nH]c3ccccc3c2=O)ccc1C(C)C [Compound 30, [2-isopropyl-5-[(4-oxo-1H-quinolin-3-yl)carbonylamino]phenyl]aminoformic acid methyl ester]	< 10	++ (between 25% to 100%)
CCc1ccc2ncc(C(=O)Nc3ccc4cc[nH]c4c3)c(O)c2c1 [Compound 67, 6-ethyl-4-hydroxy-N-(1H-indol-6-yl)quinoline-3-carboxamide]	< 10	++ (between 25% to 100%)
O=C(Nc1ccc(N2CCCC2)cc1C(F)(F)F)c1c[nH]c2ccc(F)cc2c1=O [Compound 562, 6-fluoro-4-oxo-N-[4-pyrrolidin-1-yl-2-(trifluoromethyl)phenyl]-1H-quinoline-3-carboxamide]	< 10	++ (between 25% to 100%)
CC(C)(C)c1cc(F)c(NC(=O)c2c[nH]c3cccc(O)c3c2=O)cc1O [Compound 407, N-(2-fluoro-5-hydroxy-4-tert-butyl-phenyl)-5-hydroxy-4-oxo-1H-quinoline-3-carboxamide]	< 10	++ (between 25% to 100%)
Cc1cc(-c2ccccc2NC(=O)c2c[nH]c3ccccc3c2=O)ccc1F [Compound 79, N-[2-(4-fluoro-3-methyl-phenyl)phenyl]-4-oxo-1H-quinoline-3-carboxamide]	–	++ (between 25% to 100%)
CC1(c2cc(F)c(NC(=O)c3c[nH]c4cccc(O)c4c3=O)cc2O)CCCCC1 [Compound 287, N-[2-fluoro-5-hydroxy-4-(1-methylcyclohexyl)-phenyl]-5-hydroxy-4-oxo-1H-quinoline-3-carboxamide]	< 10	++ (between 25% to 100%)
Cc1ccc(NC(=O)c2c[nH]c3ccccc3c2=O)cc1 [Compound 31, 4-oxo-N-(p-tolyl)-1H-quinoline-3-carboxamide]	< 10	++ (between 25% to 100%)
Cc1ccc(C)c(NC(=O)c2c[nH]c3ccccc3c2=O)c1 [Compound 434, N-(2,5-dimethylphenyl)-4-oxo-1H-quinoline-3-carboxamide]	< 10	++ (between 25% to 100%)
CC1(c2ccc(NC(=O)c3c[nH]c4cccc(O)c4c3=O)cc2O)CCCCC1 [Compound 606, 5-hydroxy-N-[3-hydroxy-4-(1-methylcyclohexyl)-phenyl]-4-oxo-1H-quinoline-3-carboxamide]	< 10	+ (<25%)
CC(C)(C)c1ccc(O)cc1NC(=O)c1c[nH]c2cccc(O)c2c1=O [Compound 609, 5-hydroxy-N-(5-hydroxy-2-tert-butyl-phenyl)-4-oxo-1H-quinoline-3-carboxamide]	< 10	++ (between 25% to 100%)
